Experiment [1] concerns orexin/ataxin-3 Tg/+ mice. In words: Test Example 4: Wake-promoting effect and cataplexy-free state elongation in orexin-deficient mice (EEG/EMG). The conditions noted are these: oral; for DREM latency: cut-off 4 hours. In kind it is in vivo. The method, then: The experimental animals used were orexin/ataxin-3 Tg/+ mice (hereunder referred to as “Tg mice”, Ham et al., Neuron, 30,345-54,2001) with a C57BL/6 genetic background. Electroencephalogram and electromyogram measuring electrodes were surgically embedded into 12-week-old mice (±2 weeks) under isoflurane anesthesia. The solvent (0 mg/kg) or a solution of a sample (compound of Example 1 dissolved in the solvent: 0.3, 1 or 3 mg/kg) was orally administered 30 to 15 minutes before lighting was turned off. The solvent used was a 0.1 moL/L hydrochloric acid solution containing 5% (v/v) DMSO and 5% (v/v) Kolliphor™ EL. The electroencephalogram and electromyogram were recorded for about 24 hours, from 1 hour before lighting was turned off. The mice were repeatedly used, with a washout period of 2 days or longer. The electroencephalogram and electromyogram data obtained for each mouse were used to assess the sleep stage every epoch (10 seconds), using sleep analysis software (SleepSign: Kissei Comtec Co., Ltd.), up to a maximum of 4 hours (cut-off value). For the purpose of this experiment, cataplexy-like symptoms were defined as REM sleep appearing immediately after wakefulness (direct transition from wake to REM sleep (DREM)) for a contiguous period of 4 epochs or longer. DREM in mice is an analog of cataplexy (Exp Neurol. 2009; 217:46-54). The time until initial sleep appeared after lighting out for each mouse (sleep for contiguous 8 epochs or longer, excluding DREM)(sleep onset latency) and the time until initial DREM appeared (DREM latency) were measured. The numbers of mice were 14 in the vehicle group and Example 1 compound-administered groups. The sleep onset latency and DREM latency in a vehicle control group and a compound-administered group were compared by a Dunnet-type multiple comparison test following survival time analysis in consideration of the number of experiments and use of the same individuals, with a significance level of 5% at both ends for each.

The target of the next experiment is hOX2R (Homo sapiens (Human), UniProt O43614). In words: Test Example 1-2: Evaluation of activating activity for OX2R (calcium flux, HEK293 with forced expression). In kind it is cell-based. To be noted: HEK293 cells expressing hOX2R; intracellular calcium; 30 nM OX-A as 100%; up to 1×10^−5 M. As to the method:
(§1) Human Embryonic Kidney cells 293 (HEK293) cells with forced expression of hOX1R or hOX2R were seeded in a 384-well microplate (Greiner) at 10,000 per well and cultured for 1 day in high-glucose-DMEM (FujiFilm Corp.—Wako Pure Chemical Industries, Ltd.) containing added 10% FBS (Thermo Scientific) and 1% Penicillin-Streptomycin (FujiFilm Corp.—Wako Pure Chemical Industries, Ltd.). After removing the medium, 30 μL of assay buffer (20 mM HEPES (Sigma-Aldrich Japan, KK.), Hank's balanced salt solution (Gibco), 0.1% BSA (Sigma-Aldrich Japan, KK.), 0.1% Pluronic F-127 (Invitrogen)) containing Calcium 4 dye (Molecular Device Corporation) and 2.5 mM probenecid (Sigma-Aldrich Japan, KK.) were added, and the mixture was incubated for 60 minutes. A 30 μL portion of assay buffer containing the test compound was added and reaction was initiated. Change in intracellular calcium ion concentration by the reaction was measured based on the fluorescence intensity ratio in terms of the fluorescence value with […], using FDSS7000 (Hamamatsu Photonics, K.K.). The test compound was dissolved in DMSO to 10 mM, and diluted with assay buffer to a final concentration of from 3×10^−11 M to 1×10^−5 M (DMSO final concentration of 0.1%). The EC50 value was determined from the fluorescence value with addition of the test compound at different concentrations, with the fluorescence value of the well with compound-free buffer added as 0%, and the fluorescence value of the well with 30 nM OX-A (Peptide Research Lab) as 100%.

The test system of experiment [2] is C57BL/6 line wild type (WT) male mice. In words: Test Example 3: Wake-promoting effect by oral administration to wild type mice (EEG/EMG). In kind it is in vivo. As to the method: The experimental animals used were C57BL/6 line wild type (WT) male mice. Electroencephalogram and electromyogram measuring electrodes were surgically embedded into 13-week-old mice under isoflurane anesthesia. The solvent (0 mg/kg) or a solution of the compound of Example 1 dissolved in the solvent (1, 3 or 10 mg/kg) was orally administered 30 to 15 minutes before lighting was turned off. The solvent used was a 0.1 moL/L hydrochloric acid solution containing 5% (v/v) DMSO and 5% (v/v) Kolliphor™ EL. The electroencephalogram and electromyogram were recorded for about 24 hours, from 1 hour before lighting was turned off. The mice were repeatedly used, with a washout period of 2 days or longer. The electroencephalogram and electromyogram data obtained for each mouse were used to assess the sleep stage every epoch (10 seconds), using sleep analysis software (SleepSign: Kissei Comtec Co., Ltd.). […] Using 16 mice in each administered group, the sleep onset latency in a solvent-administered group (control group) and an Example 1 compound-administered group were compared by a Dunnet-type multiple comparison test following survival time analysis in consideration of the number of experiments and use of the same individuals, with a significance level of 5% at both ends for each.

The test system of another experiment is Male C57BL/6NCrl mice. In words: Test Example 2: Increase in spontaneous movement. In kind it is in vivo. To be noted: orally administered 10 mg/kg, measured 2 hours after administration, control group as 100%. As to the method: Similar to increase in body temperature or increase in cardiovascular parameters such as blood pressure, increased movement in mice is one of indicator for wakefulness. In this test example, the alertness effect was evaluated by measuring spontaneous movement of the mice. Male C57BL/6NCrl mice (18-19 weeks old, Charles River Laboratories, Japan Inc., 4 mice in each group) were used for the experiment. Spontaneous movement was measured by using a movement measuring device (VersaMax Oven Field, AccuScan Instruments, Inc.), irradiating infrared rays from the side sections of the measuring cage, and quantifying the number of times that the mice passed through the irradiation. After placing the mice in the measuring cage and conditioning for 3 hours, the compound was orally administered (10 mg/kg). Spontaneous movement was measured 2 hours after administration. The test compound-administered group was administered a solution of the test compound dissolved in 0.1 moL/L hydrochloric acid containing 5% (v/v) DMSO and 5% (v/v) Kolliphor™ EL. For the control group, solvent alone without the test compound was administered to the mice.
Spontaneous movement was represented as a percentage for the test compound-administered group, with spontaneous movement in the control group as 100%.

The target in a further experiment is hOX1R (Homo sapiens (Human), UniProt O43613). In words: Test Example 1-2: Evaluation of activating activity for OX1R (calcium flux, HEK293 with forced expression). The class given is cell-based. The conditions noted are these: HEK293 cells expressing hOX1R; intracellular calcium; 30 nM OX-A as 100%; up to 1×10^−5 M. As to the method:
as §1
Background: Calcium assays in cells follow changes in intracellular calcium, usually with a dye or a luminescent sensor.

The target of the next experiment is human OX2R (hOX2R) (Homo sapiens (Human), UniProt O43614). In words: Test Example 1-1: Evaluation of activity for OX2R (calcium flux, HEK293 with forced expression). In kind it is cell-based. The conditions noted are these: HEK293 cells expressing hOX2R; intracellular calcium; 10 nM OX-A as 100%; up to 1×10^−7 M. As to the method: HEK293 (human embryonic kidney 293) cells with forced expression of human OX1R (hOX1R) or human OX2R (hOX2R) were seeded in a 384-well microplate (Greiner) at 10,000 per well and cultured for 1 day in high-glucose-DMEM (FujiFilm Corp.—Wako Pure Chemical Industries, Ltd.) containing added 10% FBS (Tenno Scientific) and 1% Penicillin-Streptomycin (FujiFilm Corp.—Wako Pure Chemical Industries, Ltd.). After removing the medium, 40 μL of assay buffer (20 mM HEPES (Sigma-Aldrich Japan, KK.), Hanks' balanced salt solution (Gibco), 0.1% BSA (Sigma-Aldrich Japan, KK.), 0.1% Pluronic F-127 (Invitrogen)) containing Calcium 4 dye (Molecular Device Corporation) and 2.5 mM probenecid (Sigma-Aldrich Japan, KK.) were added, and the plate was incubated for 60 minutes. After further adding 20 μL of assay buffer, 20 μL of assay buffer containing the test compound was added and reaction was initiated. Change in intracellular calcium ion concentration during the reaction was measured based on the fluorescence intensity ratio in terms of the fluorescence value with wavelength excitation at 480 nm and detection at 540 nm, using FDSS7000 (Hamamatsu Photonics, K.K.). The test compound was dissolved in DMSO to 10 mM, and diluted with assay buffer to a final concentration of from 3×10^−11 M to 1×10^−7 M (DMSO final concentration of 0.1%). […]

Molecules are shown by their SMILES. pEC50: −log10 of the molar value.

Sequence of hOX2R (O43614 whole entry): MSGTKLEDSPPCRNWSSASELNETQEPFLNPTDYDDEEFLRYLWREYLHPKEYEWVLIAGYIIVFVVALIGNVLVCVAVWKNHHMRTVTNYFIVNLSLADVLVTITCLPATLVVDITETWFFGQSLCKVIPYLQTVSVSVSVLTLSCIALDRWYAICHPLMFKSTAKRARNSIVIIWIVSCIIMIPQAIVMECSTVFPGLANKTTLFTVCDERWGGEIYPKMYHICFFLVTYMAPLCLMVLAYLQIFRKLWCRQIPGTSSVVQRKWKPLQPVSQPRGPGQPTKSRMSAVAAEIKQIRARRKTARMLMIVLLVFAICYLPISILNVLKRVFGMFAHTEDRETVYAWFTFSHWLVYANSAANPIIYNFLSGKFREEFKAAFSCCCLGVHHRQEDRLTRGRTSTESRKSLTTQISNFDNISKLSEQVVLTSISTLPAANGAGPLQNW
Sequence of hOX1R (O43613 whole entry): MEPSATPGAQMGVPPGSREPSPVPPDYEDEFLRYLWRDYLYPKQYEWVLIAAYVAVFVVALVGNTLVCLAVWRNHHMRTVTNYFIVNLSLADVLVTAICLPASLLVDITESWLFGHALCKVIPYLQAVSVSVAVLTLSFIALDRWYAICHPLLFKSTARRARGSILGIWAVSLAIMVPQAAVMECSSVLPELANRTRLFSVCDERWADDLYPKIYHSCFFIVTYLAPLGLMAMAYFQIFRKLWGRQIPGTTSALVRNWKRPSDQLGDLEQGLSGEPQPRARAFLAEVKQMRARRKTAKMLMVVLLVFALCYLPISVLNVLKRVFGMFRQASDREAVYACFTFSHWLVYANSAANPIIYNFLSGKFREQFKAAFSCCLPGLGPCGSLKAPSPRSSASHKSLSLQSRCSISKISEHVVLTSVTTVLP
Sequence of human OX2R (hOX2R) (O43614 whole entry): as the sequence (O43614 whole entry) above

As usually defined, the pEC50 is −log10 of the EC50, conventionally taken in molar units. For `CO[C@@H]1CN(c2ncc(F)cn2)CC[C@@H]1[C@@H]1C[C@H]2CC[C@@H](C1)N2[C@@H](C(N)=O)C1CC1` [Example 1, (R)-2-cyclopropyl-2-((1R,3S,5S)-3-((3S,4R)-1-(5-fluoropyrimidin-2-yl)-3-methoxypiperidin-4-yl)-8-azabicyclo[3.2.1]octan-8-yl)acetamide], the sleep onset latency in experiment [1] (0.3 mg/kg) turned out to be 0.31 h; in experiment [1] (1 mg/kg), 0.64 h; in experiment [1] (3 mg/kg) it was 2.42 h; in experiment [2] (1 mg/kg), 0.28 h; in experiment [2] (3 mg/kg), 0.44 h; in experiment [2] (10 mg/kg) it was 2.07 h. Also, the DREM latency in experiment [1] (0.3 mg/kg) was determined as 1.50 h; in experiment [1] (1 mg/kg) it was 2.26 h; in experiment [1] (3 mg/kg) it was 4.00 h. In addition, the pEC50 on hOX2R is 8.64; on hOX1R, 5.33; at human OX2R (hOX2R), 9.00. In addition, the “Spontaneous movement (% of Control)” value with Male C57BL/6NCrl mice is given as 865 % of Control.

For `CCO[C@@H]1CN(c2ncc(Cl)cn2)CC[C@@H]1[C@@H]1C[C@H]2CC[C@@H](C1)N2[C@@H](C(N)=O)C1CC1` [Example 3, (R)-2-((1R,3S,5S)-3-((3S,4R)-1-(5-chloropyrimidin-2-yl)-3-ethoxypiperidin-4-yl)-8-azabicyclo[3.2.1]octan-8-yl)-2-cyclopropyl acetamide], the values for the pEC50 on hOX2R and on hOX1R were 8.37 and 5.85, respectively.

Turning to `C[C@H]1C[C@@H]([C@@H]2C[C@H]3CC[C@@H](C2)N3[C@@H](C(N)=O)C2CC2)CCN1c1ncc(F)cn1` [Example 4, (R)-2-cyclopropyl-2-((1R,3S,5S)-3-((2S, 4S)-1-(5-fluoropyrimidin-2-yl)-2-methylpiperidin-4-yl)-8-azabicyclo[3.2.1]octan-8-yl)acetamide], the values for the pEC50 at hOX2R and at hOX1R were 8.36 and 5.41, respectively.

In the case of `CO[C@@H]1CN(c2ncc(F)cn2)CC[C@@H]1[C@@H]1C[C@H]2CC[C@@H](C1)N2[C@@H](C(N)=O)C(C)C` [Example 2, (R)-2-((1R,3S,5S)-3-((3S,4R)-1-(5-fluoropyrimidin-2-yl)-3-methoxypiperidin-4-yl)-8-azabicyclo[3.2.1]octan-8-yl)-3-methylbutaneamide], the “Spontaneous movement (% of Control)” value in the experiment with Male C57BL/6NCrl mice is reported as 253 % of Control.

Values taken from patent publication US11479552B2, “Substituted piperidine compounds and their use” (Eisai R&D Management Co., Ltd., priority 2020, dated 2022).
